Measured values as given in BigSolDB 2.1.

CN1c2ccccc2C(=O)N2CCc3c([nH]c4ccccc34)[C@H]21
solubility (mole fraction)
Conditions	283.2 K	288.2 K	293.2 K	298.2 K	303.2 K	313.2 K	323.2 K
in acetone	0.000216	–	0.000303	–	0.00038	0.000513	0.000676
in chloroform	0.000683	–	0.000876	–	0.00105	0.00135	0.00183
in cyclohexane	1.68e-06	–	2.81e-06	–	4.49e-06	6.47e-06	9.36e-06
in dichloromethane	0.000334	0.00037	0.000417	0.00048	0.000571	–	–
in diethyl ether	4.06e-05	5.16e-05	6.93e-05	7.51e-05	9.09e-05	–	–
in ethanol	6.12e-05	–	8.02e-05	–	0.000116	0.000173	0.000257
in ethyl acetate	0.000135	–	0.000165	–	0.000255	0.000321	0.000412
in isopropanol	7e-05	–	8.69e-05	–	0.000119	0.000181	0.000287
in methanol	3.52e-05	–	5.19e-05	–	7.24e-05	0.00011	0.000176
in n-butanol	0.000112	–	0.000139	–	0.000216	0.000317	0.000458
in n-hexane	1.05e-06	–	1.66e-06	–	2.61e-06	4.37e-06	5.84e-06
in n-pentane	1.59e-06	2.2e-06	2.92e-06	3.79e-06	4.7e-06	–	–
